# pIC50: −log10 of the molar value.
# Tests used:
# KRAS4B (wild type) = target: T1, KRAS4B (wild type) (Homo sapiens, UniProt P01116); assay: K-Ras Nucleotide Exchange Assay-384 (SOS Exchange Assay by Cytoskeleton, GTPx_Cyt_IC50); format: biochemical; conditions: 1 μM KRAS4B, 0.05 μM SOS1, 1.5 μM mant-GDP
# T1 construct: purchased Cytoskeleton CS-RS03 (K-Ras4B); CS-SOS1-A (SOS1)
# Experimental: Example 16. Evaluation of Biological Activities: K-Ras Nucleotide Exchange Assay-384 (SOS Exchange Assay by Cytoskeleton (GTPx_Cyt_IC50))
# This assay is used to evaluate inhibitors of K-ras, by monitoring the inhibition of nucleotide exchange over time, in the presence of the protein SOS.
# 384-well black, untreated plates (Corning 3820 with NBS or 3821 untreated) were used. K-Ras4B Protein was used, which is wild-type (Cytoskeleton #CS-RS03) with a concnetration of 5 mg/ml, or 200 μM. Human SOS1 Protein, Exchange Domain 564-1049 (Cytoskeleton # CS-SOS1-A) was used in a concentration of 3.03 mg/ml or 50 μM. Mant-GDP triethylammonium salt solution was purchased from Sigma (catalog No. 69244). 1M stock solution of Hepes was purchased from Sigma (catalog No. H9897). 1M stock solution of MgCl2 was purchased from Sigma (catalog No. M4880). CHAPS, 3% was purchased from Sigma (catalog No. C5070). Nonidet P40 was purchased from Sigma. KOH pellets were purchased from Sigma.
# K-ras buffer containing 40 mM Hepes, 10 mM MgCl2, 0.05% CHAPS, 0.01% NP40 with a pH 7.5 was prepared as follows: to a Buffer base containing 4 ml 1M Hepes, 1 ml MgCl2,
# 93.3 ml d-H2O, pH 7.5 (with KOH pellets), 1.7 ml 3% CHAPS was added, followed by the addition of 1 ml 1% NP40.
# Final Conditions of the method included 1 μM KRAS4B (wild type), 0.05 μM SOS1, 1.5 μM mant-GDP. Reagent Preparation included: thawing aliquots of KRAS, SOS, and mant-GDP; preparing 3x KRAS (3 uM) in assay buffer; preparing 3x SOS/mant-GDP (150 nM/4.5 uM) in assay buffer; and preparing 3x compounds in assay buffer.
# Assay Procedure (1536) used 3.3 μl, 3x Kras, 3.3 μl 3x compound with preincubate 0 hour, and […] 3x SOS/mant-GDP. A kinetic read measuring fluorescence at 360_450 was performed for 30 min at 30 second intervals.
# Reference compound SCH 54292 (reversible inhibitor) at about 100 μM was used with no preincubation. Reagents were only stable for 45 min on ice, and therefore were prepared fresh before each assay. Partial plates (up to 9 columns) were run at a time to minimize effects due to the amount of time it takes to read a whole plate. SOS/mant-GDP were added with an automated pipettor to initiate all reactions at the same time. Assay was typically performed at 0.5% solution in DMSO (compounds prepared in 1.5% DMSO initially).
# Clariostar Settings were as follows. Test Name was Kras Kinetic 360-450. Basic settings of the test included Measurement type as Fluorescence (FI), and Microplate name as Corning 3820. Plate mode settings included 61 cycles, 30 second cycle time, and 10 flashes per well. Optic settings were as follows. Excitation wavelength was 360 nm. Emission wavelength was 450 nM. Excitation bandwidth was 12 nm. Emission bandwidth was 12 nm. Dichroic filter 405 was used. D6 Well(s) was used for gain adjustment. No shaking was used. General settings were as follows. Top optic was used. Settling time was 0.1 second. Reading direction was bidirectional, horizontal left to right, and bottom to top. The target temperature was 25° C.
# Ras protein = Ras protein (Homo sapiens, UniProt P01116); assay: GDPx_Icagen_IC50: SOS1-mediated guanine nucleotide exchange rate of Ras (mant-GDP); format: biochemical; conditions: SOS1-initiated exchange
# Ras protein, sequence (P01116 1-188 isoform P01116-2): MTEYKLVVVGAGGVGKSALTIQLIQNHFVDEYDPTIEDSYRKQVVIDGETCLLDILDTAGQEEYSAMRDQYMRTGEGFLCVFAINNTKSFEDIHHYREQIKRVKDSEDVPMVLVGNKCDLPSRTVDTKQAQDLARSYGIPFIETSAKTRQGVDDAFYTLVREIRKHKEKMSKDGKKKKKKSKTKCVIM
# Source text: (§1) In some embodiments, the IC50 assay measures the reduction effect of a given compound on the guanine nucleotide-echange rate of Ras protein in the presence of guanine nucleotide exchange protein SOS1, which is a Ras activator. In the assay GDP-loaded Ras was first prepared in a buffer containing the compound at certain concentration and fluorescent guanine nucleotide (mant-GDP (used in Icagene assay) or mant-GTP (used in other IC50 assays). The guanine nucleotide exchange was initiated by the addition of the SOS1 and its rate was reflected in the rate of fluorescence change as a function of time, which was monitored by a reader. The experiment was repeated at different compound concentrations and the IC50 of the compound was defined as the compound concentration at which half of its maximal reduction effect on the guanine nucleotide exchange rate is achieved. In other embodiments, other Ras activator proteins may be used. Non-limiting examples of other Ras activator proteins include RasGRP (Ras guanyl-releasing protein).
# Example 17. Evaluation of Biological Activities: GDPx_Icagen_ICso
# as §1, with “The IC50” for “In some embodiments, the IC50”, “guanine nucleotide-exchange” for “guanine nucleotide-echange”, “Ras is” for “Ras was”, “nucleotide (mant-GDP).” for “nucleotide (mant-GDP (used in Icagene assay) or mant-GTP (used in other IC50 assays).”, “achieved.” for “achieved. In other embodiments, other Ras activator proteins may be used. Non-limiting examples of other Ras activator proteins include RasGRP (Ras guanyl-releasing protein).”
# T1 sequence (P01116 1-188 isoform P01116-2): as above
Compound,pIC50 (KRAS4B (wild type)),pIC50 (Ras protein)
"O=c1cc(CSc2nc3cc(Cl)ccc3s2)[nH]n1-c1nc2ccccc2[nH]1 [Compound 154, 2-(1H-benzo[d]imidazol-2-yl)-5-(((5-chlorobenzo[d]thiazol-2-yl)thio)methyl)-1,2-dihydro-3H-pyrazol-3-one]",5.89,6.52
"O=c1cc(CSc2ncccn2)[nH]n1-c1nc2ccccc2[nH]1 [Compound 156, 2-(1H-benzo[d]imidazol-2-yl)-5-((pyrimidin-2-ylthio)methyl)-1,2-dihydro-3H-pyrazol-3-one]",5.15,5.52
"O=c1cc(CSc2ccc(Br)cn2)[nH]n1-c1nc2ccccc2[nH]1 [Compound 158, 2-(1H-benzo[d]imidazol-2-yl)-5-(((5-bromopyridin-2-yl)thio)methyl)-1,2-dihydro-3H-pyrazol-3-one]",6.28,6.70
"[N-]=[N+]=NCc1ccc(SCc2cc(=O)n(-c3nc4ccccc4[nH]3)[nH]2)cc1 [Compound 162, 5-(((4-(azidomethyl)phenyl)thio)methyl)-2-(1H-benzo[d]imidazol-2-yl)-1,2-dihydro-3H-pyrazol-3-one]",5.85,4.00
"CN1CCN(Cc2ccc(SCc3cc(=O)n(-c4nc5ccccc5[nH]4)[nH]3)cc2)CC1 [Compound 163, 2-(1H-benzo[d]imidazol-2-yl)-5-(((4-((4-methylpiperazin-1-yl)methyl)phenyl)thio)methyl)-1,2-dihydro-3H-pyrazol-3-one]",6.00,6.30
"Cc1cc(C)nc(CSCc2cc(=O)n(-c3nc4ccccc4[nH]3)[nH]2)n1 [Compound 164, 2-(1H-benzo[d]imidazol-2-yl)-5-((((4,6-dimethylpyrimidin-2-yl)methyl)thio)methyl)-1,2-dihydro-3H-pyrazol-3-one]",6.20,4.66
"Cc1cc(C)nc(SCc2cc(=O)n(-c3ccccn3)n2C)n1 [Compound 165, 5-(((4,6-dimethylpyrimidin-2-yl)thio)methyl)-1-methyl-2-(pyridin-2-yl)-1,2-dihydro-3H-pyrazol-3-one]",3.52,3.70
"O=c1cc(CSc2ccccc2)[nH]n1-c1cnccn1 [Compound 166, 5-((phenylthio)methyl)-2-(pyrazin-2-yl)-1,2-dihydro-3H-pyrazol-3-one]",3.48,4.31
"O=c1cc(CSc2ccccc2Cl)[nH]n1-c1nc2ccccc2[nH]1 [Compound 167, 2-(1H-benzo[d]imidazol-2-yl)-5-(((2-chlorophenyl)thio)methyl)-1,2-dihydro-3H-pyrazol-3-one]",3.52,6.70
"Cn1c(-n2[nH]c(CSc3ccccc3)cc2=O)nc2ccccc21 [Compound 170, 2-(1-methyl-1H-benzo[d]imidazol-2-yl)-5-((phenylthio)methyl)-1,2-dihydro-3H-pyrazol-3-one]",5.21,4.92
"O=c1cc(CSc2ccc(Cl)c(Cl)c2)[nH]n1-c1nc2ccccc2[nH]1 [Compound 172, 2-(1H-benzo[d]imidazol-2-yl)-5-(((3,4-dichlorophenyl)thio)methyl)-1,2-dihydro-3H-pyrazol-3-one]",6.10,6.70
"O=c1cc(CSc2ccc(Cl)cc2)[nH]n1-c1nc2ccccc2[nH]1 [Compound 183, 2-(1H-benzo[d]imidazol-2-yl)-5-(((4-chlorophenyl)thio)methyl)-1,2-dihydro-3H-pyrazol-3-one]",3.52,6.70
"Cc1cc(C)nc(SCc2cc(=O)n(-c3nc4ccccc4s3)[nH]2)n1 [Compound 184, 2-(benzo[d]thiazol-2-yl)-5-(((4,6-dimethylpyrimidin-2-yl)thio)methyl)-1,2-dihydro-3H-pyrazol-3-one]",4.87,5.24

# The remaining compounds from weak to strong by pIC50 (KRAS4B (wild type)), led by results:
pIC50 (KRAS4B (wild type)),pIC50 (Ras protein),Compound
3.30,5.89,"Cc1ccc(SCc2cc(=O)n(-c3nc4ccccc4[nH]3)[nH]2)cc1 [Compound 186, 2-(1H-benzo[d]imidazol-2-yl)-5-((p-tolylthio)methyl)-1,2-dihydro-3H-pyrazol-3-one]"
3.47,5.23,"O=c1cc(CSc2ccccn2)[nH]n1-c1nc2ccccc2s1 [Compound 185, 2-(benzo[d]thiazol-2-yl)-5-((pyridin-2-ylthio)methyl)-1,2-dihydro-3H-pyrazol-3-one]"
4.00,6.77,"O=c1cc(CSc2cccc(Cl)c2)[nH]n1-c1nc2ccccc2[nH]1 [Compound 171, 2-(1H-benzo[d]imidazol-2-yl)-5-(((3-chlorophenyl)thio)methyl)-1,2-dihydro-3H-pyrazol-3-one]"
4.00,6.30,"N#Cc1cccc(SCc2cc(=O)n(-c3nc4ccccc4[nH]3)[nH]2)c1 [Compound 173, 3-(((1-(1H-benzo[d]imidazol-2-yl)-5-oxo-2,5-dihydro-1H-pyrazol-3-yl)methyl)thio)benzonitrile]"
5.15,5.64,"O=c1cc(CSc2ccncc2)[nH]n1-c1nc2ccccc2[nH]1 [Compound 168, 2-(1H-benzo[d]imidazol-2-yl)-5-((pyridin-4-ylthio)methyl)-1,2-dihydro-3H-pyrazol-3-one]"
5.57,5.03,"Cc1ccnc(-n2[nH]c(CSc3ccccc3)cc2=O)c1 [Compound 174, 2-(4-methylpyridin-2-yl)-5-((phenylthio)methyl)-1,2-dihydro-3H-pyrazol-3-one]"
5.59,5.15,"Cc1cccc(-n2[nH]c(CSc3ccccc3)cc2=O)n1 [Compound 169, 2-(6-methylpyridin-2-yl)-5-((phenylthio)methyl)-1,2-dihydro-3H-pyrazol-3-one]"
6.00,6.30,"NC(=O)c1cccc(SCc2cc(=O)n(-c3nc4ccccc4[nH]3)[nH]2)c1 [Compound 159, 3-(((1-(1H-benzo[d]imidazol-2-yl)-5-oxo-2,5-dihydro-1H-pyrazol-3-yl)methyl)thio)benzamide]"
6.10,5.70,"O=c1cc(CSc2nnc(-c3ccccc3)o2)[nH]n1-c1nc2ccccc2[nH]1 [Compound 153, 2-(1H-benzo[d]imidazol-2-yl)-5-(((5-phenyl-1,3,4-oxadiazol-2-yl)thio)methyl)-1,2-dihydro-3H-pyrazol-3-one]"
6.21,6.22,"Cc1csc(SCc2cc(=O)n(-c3nc4ccccc4[nH]3)[nH]2)n1 [Compound 152, 2-(1H-benzo[d]imidazol-2-yl)-5-(((4-methylthiazol-2-yl)thio)methyl)-1,2-dihydro-3H-pyrazol-3-one]"

# Source: patent US20200308165A1, “Compounds as Ras Inhibitors and Use Thereof” (D.E. Shaw Research, LLC, priority 2017, published 2020)
